Test systems include HCT-15 colon; MALME-3M melanoma; RXF 393 renal; RPMI-8226 leukemia; SF-539 CNS; SN12C renal; CAKI-1 renal; SR leukemia; MCF7 breast; HT29 colon.
Experiment in all cases: inhibition of tumour cell growth, NCI panel, 48 h

The text below walks through data of PubChem BioAssay (NCI).

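Cells were grown in 96-well plates and exposed to each compound for 48 hours at five concentrations; endpoints were interpolated linearly between bracketing concentrations, or set to the highest concentration if not reached. Abbreviation: GI50, concentration required for 50% inhibition of growth. TGI marks complete inhibition of growth.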

As to `Cn1sc2ccccc2c1=S`, the TGI in the test with HCT-15 colon came to 17.3 µM; with MALME-3M melanoma, 22.9 µM; with RXF 393 renal it was 7.95 µM; in the test with RPMI-8226 leukemia, 18.7 µM; in the test with SF-539 CNS it was 16.4 µM; with SN12C renal it was 18.2 µM. Also, the TGI with CAKI-1 renal worked out at 16.9 µM; in the test with SR leukemia, 38.7 µM; with MCF7 breast, 7.36 µM; in the test on HT29 colon it was 23.3 µM.

`COc1cc(C)c(NC(=O)CN(C)C)cc1Nc1nc(Nc2cccc(F)c2C(N)=O)c2cc[nH]c2n1`: the GI50 is 1.98 µM in the test on HCT-15 colon; 1.91 µM with MALME-3M melanoma; 1.42 µM in the test on RXF 393 renal; 2.23 µM in the test on RPMI-8226 leukemia; 3.05 µM in the test with SF-539 CNS; 3.86 µM in the test with SN12C renal. Further, the GI50 in the test on CAKI-1 renal was 3.68 µM; in the test on SR leukemia, 0.00977 µM; in the test on MCF7 breast, 0.0138 µM; in the test with HT29 colon it was 0.00981 µM. Moreover, the TGI worked out at 6.9 µM in the test with HCT-15 colon; 7.47 µM with MALME-3M melanoma; 5.9 µM in the test on RXF 393 renal; 7.99 µM in the test with RPMI-8226 leukemia; 7.07 µM with SF-539 CNS; 8.23 µM in the test with SN12C renal. Further, the TGI with CAKI-1 renal amounted to 9.95 µM; in the test on SR leukemia, 2.89 µM; in the test on MCF7 breast, 2.9 µM; in the test on HT29 colon, 0.725 µM.
